How the values were obtained:
CDK6-CYCLIND3 = target: T1, CDK6-CYCLIND3 (Homo sapiens, UniProt Q00534); test: Microfluidic LabChip kinase inhibition assay, CDK6-CyclinD3; type: biochemical; details: Table 2; 300 μM ATP, 2 nM enzyme; read-out: CDK6 IC50
T1 construct: purchased Carna

CDK4-CYCLIND1 = CDK4-CYCLIND1 (Homo sapiens, UniProt P11802); test: Microfluidic LabChip kinase inhibition assay, CDK4-CyclinD1; details: CDK4 IC50 (μM), Table 2; 200 μM ATP, 1 nM enzyme
CDK4-CYCLIND1, sequence (P11802 whole entry): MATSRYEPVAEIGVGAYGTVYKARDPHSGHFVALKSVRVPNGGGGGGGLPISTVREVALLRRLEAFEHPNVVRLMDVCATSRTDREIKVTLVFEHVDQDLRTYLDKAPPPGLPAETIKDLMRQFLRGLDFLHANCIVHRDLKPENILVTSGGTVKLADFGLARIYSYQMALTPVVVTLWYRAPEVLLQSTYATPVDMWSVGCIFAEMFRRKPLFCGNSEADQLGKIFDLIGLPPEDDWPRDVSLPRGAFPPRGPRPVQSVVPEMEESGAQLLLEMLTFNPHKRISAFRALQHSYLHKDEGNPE
CDK4-CYCLIND1, sequence (P24385 whole entry partner): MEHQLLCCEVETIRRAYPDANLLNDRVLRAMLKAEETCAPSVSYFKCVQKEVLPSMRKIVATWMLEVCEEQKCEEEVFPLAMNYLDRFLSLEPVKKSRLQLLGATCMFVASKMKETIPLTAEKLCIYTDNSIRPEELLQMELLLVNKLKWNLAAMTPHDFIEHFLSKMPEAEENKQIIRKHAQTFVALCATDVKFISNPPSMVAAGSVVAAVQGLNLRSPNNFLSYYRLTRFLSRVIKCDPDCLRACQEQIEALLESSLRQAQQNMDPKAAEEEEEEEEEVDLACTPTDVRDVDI

T1 sequence (Q00534 whole entry): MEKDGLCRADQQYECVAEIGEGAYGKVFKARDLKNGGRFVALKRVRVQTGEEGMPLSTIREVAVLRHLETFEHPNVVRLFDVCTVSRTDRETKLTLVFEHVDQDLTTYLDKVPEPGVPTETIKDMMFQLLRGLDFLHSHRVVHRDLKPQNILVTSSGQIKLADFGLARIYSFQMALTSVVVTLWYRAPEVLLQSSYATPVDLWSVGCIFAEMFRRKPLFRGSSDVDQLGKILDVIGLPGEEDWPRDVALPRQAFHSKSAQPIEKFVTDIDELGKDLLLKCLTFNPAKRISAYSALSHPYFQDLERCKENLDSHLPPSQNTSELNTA
T1 sequence (P30281 whole entry partner): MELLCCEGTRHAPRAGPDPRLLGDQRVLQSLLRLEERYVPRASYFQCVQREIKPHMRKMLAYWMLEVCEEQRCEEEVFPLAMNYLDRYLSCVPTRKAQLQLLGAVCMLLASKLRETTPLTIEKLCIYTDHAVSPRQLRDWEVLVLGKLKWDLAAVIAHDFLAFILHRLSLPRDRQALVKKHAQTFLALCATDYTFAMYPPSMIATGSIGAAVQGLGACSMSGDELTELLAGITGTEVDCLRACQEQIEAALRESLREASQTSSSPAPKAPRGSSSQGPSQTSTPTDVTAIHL

| SMILES | IC50 (CDK6-CYCLIND3) [nM] | IC50 (CDK4-CYCLIND1) [µM] |
| --- | --- | --- |
| CN1C(=O)CC2(Cc3cnc(Nc4ccc(N5CCNCC5)cc4)nc3N2C2CCCC2)C1=O (stereo not shown) [Compound C68, 7′-cyclopentyl-1-methyl-2′-((4-(piperazin-1-yl)phenyl)amino)-5′,7′-dihydrospiro[pyrrolidine-3,6′-pyrrolo[2,3-d]pyrimidine]-2,5-dione] | 6680 | 2.49 |
| CN1CCN(c2ccc(Nc3ncc4c(n3)N(C3CCCC3)C3(CC(=O)N(C)C3=O)C4)cc2)CC1 (stereo not shown) [Compound C69, 7′-cyclopentyl-1-methyl-2′-((4-(4-methylpiperazin-1-yl)phenyl)amino)-5′,7′-dihydrospiro[pyrrolidine-3,6′-pyrrolo[2,3-d]pyrimidine]-2,5-dione] | 2790 | 1.08 |
| CC(C)N1CCN(c2ccc(Nc3ncc4c(n3)N(C3CCCC3)C3(CC(=O)N(C)C3=O)C4)cc2)CC1 (stereo not shown) [Compound C70, 7′-cyclopentyl-2′-((4-(4-isopropylpiperazin-1-yl)phenyl)amino)-1-methyl-5′,7′-dihydrospiro[pyrrolidine-3,6′-pyrrolo[2,3-d]pyrimidine]-2,5-dione] | 346 | 0.159 |
| CN1C(=O)CC2(Cc3cnc(Nc4ccc(N5CCNCC5)c(F)c4)nc3N2C2CCCC2)C1=O (stereo not shown) [Compound C71, 7′-cyclopentyl-2′-((3-fluoro-4-(piperazin-1-yl)phenyl)amino)-1-methyl-5′,7′-dihydrospiro[pyrrolidine-3,6′-pyrrolo[2,3-d]pyrimidine]-2,5-dione] | 11700 | 4.94 |
| CN1CCN(c2ccc(Nc3ncc4c(n3)N(C3CCCC3)C3(CC(=O)N(C)C3=O)C4)cc2F)CC1 (stereo not shown) [Compound C72, 7′-cyclopentyl-2′-((3-fluoro-4-(4-methylpiperazin-1-yl)phenyl)amino)-1-methyl-5′,7′-dihydrospiro[pyrrolidine-3,6′-pyrrolo[2,3-d]pyrimidine]-2,5-dione] | 13900 | 2.53 |
| CC(C)N1CCN(c2ccc(Nc3ncc4c(n3)N(C3CCCC3)C3(CC(=O)N(C)C3=O)C4)cc2F)CC1 (stereo not shown) [Compound C73, 7′-cyclopentyl-2′-((3-fluoro-4-(4-isopropylpiperazin-1-yl)phenyl)amino)-1-methyl-5′,7′-dihydrospiro[pyrrolidine-3,6′-pyrrolo[2,3-d]pyrimidine]-2,5-dione] | 9740 | 1.94 |
| O=C1CC2(Cc3cnc(Nc4ccc(N5CCNCC5)cn4)nc3N2C2CCCC2)C(=O)N1 (stereo not shown) [Compound C74, 7′-cyclopentyl-2′-((5-(piperazin-1-yl)pyridin-2-yl)amino)-5′,7′-dihydrospiro[pyrrolidine-3,6′-pyrrolo[2,3-d]pyrimidine]-2,5-dione] | 84500 | 22.7 |
| CN1CCN(c2ccc(Nc3ncc4c(n3)N(C3CCCC3)C3(CC(=O)NC3=O)C4)nc2)CC1 (stereo not shown) [Compound C75, 7′-cyclopentyl-2′-((5-(4-methylpiperazin-1-yl)pyridin-2-yl)amino)-5′,7′-dihydrospiro[pyrrolidine-3,6′-pyrrolo[2,3-d]pyrimidine]-2,5-dione] | 34.8 | 0.0203 |
| CC(C)N1CCN(c2ccc(Nc3ncc4c(n3)N(C3CCCC3)C3(CC(=O)NC3=O)C4)nc2)CC1 (stereo not shown) [Compound C76, 7′-cyclopentyl-2′-((5-(4-isopropylpiperazin-1-yl)pyridin-2-yl)amino)-5′,7′-dihydrospiro[pyrrolidine-3,6′-pyrrolo[2,3-d]pyrimidine]-2,5-dione] | 139 | 0.103 |
| O=C1CC2(Cc3cnc(Nc4ccc(N5CCNCC5)cc4)nc3N2C2CCCC2)C(=O)N1 (stereo not shown) [Compound C77, 7′-cyclopentyl-2′-((4-(piperazin-1-yl)phenyl)amino)-5′,7′-dihydrospiro[pyrrolidine-3,6′-pyrrolo[2,3-d]pyrimidine]-2,5-dione] | 131 | 0.0251 |
| CN1CCN(c2ccc(Nc3ncc4c(n3)N(C3CCCC3)C3(CC(=O)NC3=O)C4)cc2)CC1 (stereo not shown) [Compound C78, 7-cyclopentyl-2′-((4(4-methylpiperazin-1-yl)phenyl)amino)-5′,7′-dihydrospiro[pyrrolidine-3,6′-pyrrolo[2,3-d]pyrimidine]-2,5-dione] | 350 | 0.0667 |
| CC(C)N1CCN(c2ccc(Nc3ncc4c(n3)N(C3CCCC3)C3(CC(=O)NC3=O)C4)cc2)CC1 (stereo not shown) [Compound C79, 7′-cyclopentyl-2′-((4-(4-isopropylpiperazin-1-yl)phenyl)amino)-5′,7′-dihydrospiro[pyrrolidine-3,6′-pyrrolo[2,3-d]pyrimidine]-2,5-dione] | 130 | 0.021 |
| O=C1CC2(Cc3cnc(Nc4ccc(N5CCNCC5)c(F)c4)nc3N2C2CCCC2)C(=O)N1 (stereo not shown) [Compound C80, 7′-cyclopentyl-2′-((3-fluoro-4-(piperazin-1-yl)phenyl)amino)-5′,7′-dihydrospiro[pyrrolidine-3,6′-pyrrolo[2,3-d]pyrimidine]-2,5-dione] | 79.2 | 0.0134 |
| CN1CCN(c2ccc(Nc3ncc4c(n3)N(C3CCCC3)C3(CC(=O)NC3=O)C4)cc2F)CC1 (stereo not shown) [Compound C81, 7′-cyclopentyl-2′-((3-fluoro-4-(4-methylpiperazin-1-yl)phenyl)amino)-5′,7′-dihydrospiro[pyrrolidine-3,6′-pyrrolo[2,3-d]pyrimidine]-2,5-dione] | 73.3 | 0.0162 |
| CC(C)N1CCN(c2ccc(Nc3ncc4c(n3)N(C3CCCC3)C3(CC(=O)NC3=O)C4)cc2F)CC1 (stereo not shown) [Compound C82, 7′-cyclopentyl-2′-((3-fluoro-4-(4-isopropylpiperazin-1-yl)phenyl)amino)-5′,7′-dihydrospiro[pyrrolidine-3,6′-pyrrolo[2,3-d]pyrimidine]-2,5-dione] | 124 | 0.0222 |
| O=C1CC2(Cc3cnc(Nc4ccc(N5CCNCC5)nc4)nc3N2C2CCCC2)C(=O)N1 (stereo not shown) [Compound C83, 7′-cyclopentyl-2′-((6-(piperazin-1-yl)pyridin-3-yl)amino)-5′,7′-dihydrospiro[pyrrolidine-3,6′-pyrrolo[2,3-d]pyrimidine]-2,5-dione] | 168 | 0.0516 |
| CN1CCN(c2ccc(Nc3ncc4c(n3)N(C3CCCC3)C3(CC(=O)NC3=O)C4)cn2)CC1 (stereo not shown) [Compound C84, 7′-cyclopentyl-2′-((6-(4-methylpiperazin-1-yl)pyridin-3-yl)amino)-5′,7′-dihydrospiro[pyrrolidine-3,6′-pyrrolo[2,3-d]pyrimidine]-2,5-dione] | 173 | 0.0399 |
| CC(C)N1CCN(c2ccc(Nc3ncc4c(n3)N(C3CCCC3)C3(CC(=O)NC3=O)C4)cn2)CC1 (stereo not shown) [Compound C85, 7′-cyclopentyl-2′-((6-(4-isopropylpiperazin-1-yl)pyridin-3-yl)amino)-5′,7′-dihydrospiro[pyrrolidine-3,6′-pyrrolo[2,3-d]pyrimidine]-2,5-dione] | 214 | 0.0489 |
| O=C1CC2(Cc3cnc(Nc4ccc(N5CCOCC5)c(F)c4)nc3N2C2CCCC2)C(=O)N1 (stereo not shown) [Compound C86, 7′-cyclopentyl-2′-((3-fluoro-4-morpholinophenyl)amino)-5′,7′-dihydrospiro[pyrrolidine-3,6′-pyrrolo[2,3-d]pyrimidine]-2,5-dione] | 461 | 0.101 |
| CN1CCN(c2ccc(Nc3ncc4c(n3)N(C3CCCC3)C3(CC(=O)NC3=O)C4)c(F)c2)CC1 (stereo not shown) [Compound C87, 7′-cyclopentyl-2′-((2-fluoro-4-(4-methylpiperazin-1-yl)phenyl)amino)-5′,7′-dihydrospiro[pyrrolidine-3,6′-pyrrolo[2,3-d]pyrimidine]-2,5-dione] | 78100 | 14.9 |
| CN(C)CCOc1ccc(Nc2ncc3c(n2)N(C2CCCC2)C2(CC(=O)NC2=O)C3)cn1 (stereo not shown) [Compound C88, 7′-cyclopentyl-2′-((6-(2-(dimethylamino)ethoxy)pyridin-3-yl)amino)-5′,7′-dihydrospiro[pyrrolidine-3,6′-pyrrolo[2,3-d]pyrimidine]-2,5-dione] | 359 | 0.097 |
| CN(C)CCOc1ccc(Nc2ncc3c(n2)N(C2CCCC2)C2(CC(=O)NC2=O)C3)cc1 (stereo not shown) [Compound C89, 7′-cyclopentyl-2′-((4-(2-(dimethylamino)ethoxy)phenyl)amino)-5′,7′-dihydrospiro[pyrrolidine-3,6′-pyrrolo[2,3-d]pyrimidine]-2,5-dione] | 562 | 0.143 |
| O=C1CC2(Cc3cnc(Nc4ccc(OCCN5CCCC5)nc4)nc3N2C2CCCC2)C(=O)N1 (stereo not shown) [Compound C90, 7′-cyclopentyl-2′-((6-(2-(pyrrolidin-1-yl)ethoxy)pyridin-3-yl)amino)-5′,7′-dihydrospiro[pyrrolidine-3,6′-pyrrolo[2,3-d]pyrimidine]-2,5-dione] | 255 | 0.072 |
| O=C1CC2(Cc3cnc(Nc4ccc(OCCN5CCCC5)c(F)c4)nc3N2C2CCCC2)C(=O)N1 (stereo not shown) [Compound C91, 7′-cyclopentyl-2′-((3-fluoro-4-(2-(pyrrolidin-1-yl)ethoxy)phenyl)amino)-5′,7′-dihydrospiro[pyrrolidine-3,6′-pyrrolo[2,3-d]pyrimidine]-2,5-dione] | 239 | 0.0554 |
| CN(C)CCOc1ccc(Nc2ncc3c(n2)N(C2CCCC2)C2(CC(=O)NC2=O)C3)nc1 (stereo not shown) [Compound C92, 7′-cyclopentyl-2′-((5-(2-(dimethylamino)ethoxy)pyridin-2-yl)amino)-5′,7′-dihydrospiro[pyrrolidine-3,6′-pyrrolo[2,3-d]pyrimidine]-2,5-dione] | 95.5 | 0.0831 |
| O=C1CC2(Cc3cnc(Nc4ccc(C5=CCNCC5)cn4)nc3N2C2CCCC2)C(=O)N1 (stereo not shown) [Compound C93, 7′-cyclopentyl-2′-((1′,2′,3′,6′-tetrahydro-[3,4′-bipyridin]-6-yl)amino)-5′,7′-dihydrospiro[pyrrolidine-3,6′-pyrrolo[2,3-d]pyrimidine]-2,5-dione] | 31800 | 6.84 |

Reference: patent US20230065740A1, “CYCLIN-DEPENDENT KINASE INHIBITORS” (SPV THERAPEUTICS INC., priority 2018, published 2023)
